Peptide text beside a SMILES is read from it. * marks the point of attachment. MeOSuc = COC(=O)CCC(=O)*; CH2Cl = ClC*
Experiments:
Type in all cases: biochemical
[1] = molecular target: elastase (Sus scrofa, UniProt P00772); assay: EnzChek Elastase Assay Kit, anti-elastase activity; settings: fluorometric kit, 37 °C, 30 min kinetic
Procedure: Anti-elastase activity of the compound was investigated using the EnzChek® Elastase Assay Kit (E-12056) according to the previously reported method. The tested compound and reference control were prepared in concentrations of 0.1, 1, 10, and 100 µg/mL for the analysis. The compound was prepared in 96-well plates with clear bottoms for the fluorometric assay. Briefly, elastase enzyme solutions, elastase substrate, and inhibitor control were prepared as recommended. Diluted elastase solution was then added to the wells. Tested compound, inhibitor control, and enzyme control were added to subsequent wells. The samples were mixed on a shaker and then incubated for 5 min at 37 °C. Assay buffer was mixed with the substrate to prepare the fluorometric reaction mix, which was then added and mixed thoroughly with each sample. The fluorescence was measured immediately at 400 nm excitation wavelength and 505 nm emission wavelength using a microplate reader (FilterMax F5, Thermo Fisher, Waltham, MA, USA). The measurement was made in kinetic mode at 37 °C for 30 min protected from light. All tested samples were prepared and assayed in duplicate and the elastase inhibitory effect of the tested compound was calculated applying the following equation: %Relative inhibition=ΔRFU(test inhibitor)/ΔRFU×100 where: • ΔRFU = a change in relative fluorescence units • EC = enzyme control

[2] = molecular target: tyrosinase; assay: Tyrosinase Inhibitor Screening Colorimetric Assay Kit; settings: 25 °C, 510 nm
Procedure: The inhibitory activities of oils were tested against collagenase using the Abcam® Tyrosinase Inhibitor Screening Colorimetric Assay Kit (catalog # ab204715). The assay was carried out according to the provided manual. […] The tested compound was prepared in concentrations ranging from 0.1 to 100 µg/mL for the analysis. About 2 μL of provided tyrosinase was mixed with 48 μL of tyrosinase assay buffer. The samples of essential oils or standard (20 μL) were mixed with the enzyme mixture (50 μL) and incubated at 25 °C for 10 min. Then, 30 μL of tyrosinase substrate solution was added to the wells of essential oils and standard. Afterward, the plate was measured spectrophotometrically at a wavelength of 510 nm for 30–60 min at 25 °C.

[3] = molecular target: collagenase; assay: fluorometric collagenase inhibitor screening kit; settings: 37 °C, 60 min kinetic
Procedure: The inhibitory ability of the isolated compound against collagenase activity was assessed using a fluorometric collagenase inhibitor screening kit (BioVision, catalog no. # K833-100) according to the previously described method. The reference control was (1,10)-phenanthroline. The tested compound and reference control were prepared in concentrations of 1, 10, 100, and 1000 ug/mL for the analysis. The tested compound was prepared in a 96-well plate with a flat bottom. First, the collagenase substrate was dissolved in collagenase assay buffer (CAB). The sample for analysis was prepared by mixing the compound with both collagenase and CAB. Preparing inhibitor control samples was performed by mixing the inhibitor ((1,10)-phenanthroline (80 mM)) with the diluted collagenase enzyme and CAB buffer. Enzyme control was prepared by mixing the diluted collagenase with CAB. The CAB buffer was used as the background control. All samples were incubated at room temperature for 15 min. […] The fluorescence was measured immediately at 490 nm excitation wavelength and 520 nm emission wavelength using a microplate reader (FilterMax F5, Thermo Fisher). […] Samples were prepared in duplicate and the collagenase inhibitory effect of the tested compound was calculated applying the following equation: % Relative inhibition=Enzyme control−sample/Enzyme control×100

Chain of elastase (P00772 27-266): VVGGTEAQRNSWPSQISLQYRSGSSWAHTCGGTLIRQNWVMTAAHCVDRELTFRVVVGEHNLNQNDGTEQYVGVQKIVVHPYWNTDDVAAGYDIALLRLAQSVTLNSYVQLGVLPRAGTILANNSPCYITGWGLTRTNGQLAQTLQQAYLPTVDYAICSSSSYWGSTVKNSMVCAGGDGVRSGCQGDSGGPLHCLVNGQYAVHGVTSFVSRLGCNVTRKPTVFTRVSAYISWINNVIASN

## COC(=O)CCC(=O)N[C@@H](C)C(=O)N[C@@H](C)C(=O)N1CCC[C@H]1C(=O)N[C@H](C(=O)CCl)C(C)C [N-methoxysuccinyl-Ala-Ala-Pro-Val-chloromethyl ketone] (MeOSuc-AAPV-CH2Cl)
[1]
  anti-elastase IC50: 0.63 µg/mL

## O=c1c2ccc(O)c(O)c2oc2c(C3OC(CO)C(O)C(O)C3O)c(O)cc(O)c12 [isolated compound, 1,3,5,6-tetrahydroxyxanthone-C-4-β-D-glucopyranoside]
[2]
  anti-tyrosinase IC50: 0.48 µg/mL

## c1cnc2c(c1)ccc1cccnc12 [phenanthroline, (1,10)-phenanthroline]
[3]
  anti-collagenase IC50: 182.80 µg/mL

From publication PMC9105941, “A New Xanthone Glycoside from Mangifera indica L.: Physicochemical Properties and In Vitro Anti-Skin Aging Activities” (Molecules, 2022)
